Laboratory results: article PMC10445290, “Enantiomeric Fractions Reveal Differences in the Atropselective Disposition of 2,2′,3,5′,6-Pentachlorobiphenyl (PCB 95) in Wildtype, Cyp2abfgs-Null, and CYP2A6-Humanized Mice” (Chemical Research in Toxicology, 2023)
Where two headings read alike, the source gives them in different places.

Legend:
[1] = Levels of PCB 95 and its hydroxylated metabolites in adipose, blood, brain and liver 24 h after a single oral dose (GC-MS/MS); assay type: in vivo, mice; conditions: for Levels in blood / Levels in adipose / Levels in liver / concentration at 24 h: 1 mg/kg; for concentration at 24 h: po
Description: Adult male and female wild-type (WT) C57BL/6 mice, KO, and KI mice (4 months old) were exposed to racemic PCB 95. Mice were randomly assigned to exposure groups and received a single oral dose of PCB 95 (1.0 mg/kg) in stripped corn oil (10 mL/kg; lot# A0395699; cat# 801-03-7; Fisher Scientific) via gavage (5–7 mice per group). Control animals received corn oil alone (1–3 mice per group) to assess the potential background contamination with PCB 95. Animals were euthanized 24 h after PCB 95 exposure. Blood was collected from the heart and placed in pre-weighed glass vials with 80 μL of ethylenediaminetetraacetic acid solution (EDTA, 7.5%, w/w). The amount of blood in each vial was determined by weight prior to sample extraction. Adipose, brain, and liver tissues were excised from each animal and individually wrapped in aluminum foil. Samples were stored at −80 °C in separate plastic bags and shipped on dry ice to the University of Iowa for analysis.
PCB 95 and its hydroxylated metabolites were extracted from adipose (0.06 ± 0.01 g), brain (0.19 ± 0.03 g) and liver tissues (0.49 ± 0.07 g) by pressurized liquid extraction (PLE) with a Dionex ASE200 system (Dionex, Sunnyvale, CA, USA).[45] Tissues were homogenized with 2 g of pre-cleaned diatomaceous earth (Thermo Fisher Scientific, Pittsburgh, PA, USA) and placed in extraction cells loaded with 10 g of pre-extracted Florisil (60–100 mesh, Fisher Scientific, Pittsburgh, PA, USA). Tissue samples were then spiked with recovery standards [50 ng of PCB 117 in 50 μL of isooctane and 50 ng of 4′-159 (2′,3,3′,5,5′,6′-hexachlorobiphenyl-4-ol) in 50 μL of methanol]. For ongoing precision recovery (OPR) samples; recovery standard, internal standard, PCB 95, and its metabolites (50 ng each) were spiked to the method blank (DE only) and tissues from control animals. Cells were extracted with hexane–dichloromethane–methanol (48:43:9, v/v/v) at 100 °C and 1500 psi (10 MPa), with preheat equilibration for 6 min, 60% of cell flush volume, and 1 static cycle of 5 min. The extracts were concentrated to approximately 1 mL with a TurboVap II (Biotage, LLC, NC, USA) and transferred to new glass tubes with 1 mL of hexane. The solvent was evaporated to near dryness under a gentle stream of nitrogen, and extracts were redissolved in 1 mL of hexane.
PCB 95 and its hydroxylated metabolites were extracted from whole blood (0.45 ± 0.13 g) using a published liquid–liquid extraction procedure.[29] Briefly, blood samples were thawed, and 3 mL of aqueous 1% KCl solution was added to each sample. Recovery standards (50 ng of PCB 117 in 50 μL of isooctane and 50 ng of 4′-159 in 50 μL of methanol) were spiked to all samples, including OPR samples, before extraction. Subsequently, 1 mL of 6 M HCl, 5 mL of 2-propanol, and 5 mL of 1:1 hexane–MTBE mixture (v/v) were added to the blood samples. The samples were inverted for 5 min and centrifuged at 1690g for 5 min to facilitate the phase separation. Next, the organic phases were transferred to new glass tubes, and the aqueous phases were re-extracted with 3 mL of hexane. Next, three mL of aqueous 1% KCl were added to the combined organic extracts, and samples were inverted and centrifuged as described above. The organic phase was transferred to a new tube, and the aqueous phase was re-extracted with 3 mL of hexane. The combined organic extracts were evaporated to near dryness using a Savant SpeedVac SPD210 (Thermo Scientific, Waltham, MA, US), and each sample was reconstituted with 0.5 mL of hexane.
Five drops of methanol and 0.5 mL of diazomethane (CH2N2; about 0.1 mmol) in diethyl ether were added to the tissue or blood extracts to derivatize the OH-PCBs.[45] Diazomethane rapidly converts the phenolic hydroxyl groups of OH-PCBs to methoxy groups (i.e., −OH → −OCH3). All samples were stored at 4 °C for approximately 16 h. Excess diazomethane evaporated under a gentle stream of nitrogen in a fume hood, followed by adding 0.5 mL of hexane. […]

[2] = cited from earlier work
[3] = design: method as in PMID 26463278; conditions: male Wistar rats, sub-acute oral exposure; cited from earlier work
[4] = cited from earlier work; remark: listed apart in the source
[5] = MKI, male CYP2A6-humanized mice, single oral PCB 95 1.0 mg/kg, mean ± SD
[6] = MWT, male wildtype mice, single oral PCB 95 1.0 mg/kg, mean ± SD
[7] = collected in 2001 from Japanese women

Clc1ccc(Cl)c(-c2c(Cl)ccc(Cl)c2Cl)c1 [PCB 95, 2,2′,3,5′,6-pentachlorobiphenyl]
Levels in blood ([1]; FKO, female Cyp2abfgs-null mice, single oral PCB 95 1.0 mg/kg, mean ± SD): 9 ng/g tissue | Levels in adipose ([1]; FWT, female wildtype mice, single oral PCB 95 1.0 mg/kg, mean ± SD): 1300 ng/g tissue | Levels in blood [1, 5]: 16 ng/g tissue | Levels in liver [1, 5]: 183 ng/g tissue | Levels in adipose ([1]; MKO, male Cyp2abfgs-null mice, single oral PCB 95 1.0 mg/kg, mean ± SD): 690 ng/g tissue | Levels in adipose [1, 6]: 1300 ng/g tissue | Levels in liver [1, 6]: 96 ng/g tissue | Kp at 24 h ([1]; both sexes, C57BL/6 (wild-type), KO and KI, mouse, adipose / whole blood, all six exposure groups, single oral 1.0 mg/kg, read-out: Mean adipose levels, times higher than the blood levels): 42 to 68 | concentration at 24 h ([1]; both sexes, C57BL/6 (wild-type), KO and KI, mouse, brain, range across all three genotypes and both sexes, single oral 1.0 mg/kg, read-out: PCB 95 levels in the whole brain): 13 to 21 ng/g | concentration at 24 h ([1]; female, C57BL/6 (wild-type), mouse, adipose, FWT, female wildtype mice, single oral PCB 95 1.0 mg/kg, mean ± SD, read-out: Levels in adipose): 1310 ± 405 ng/g | concentration at 24 h ([1]; female, C57BL/6 (wild-type), mouse, brain, FWT, female wildtype mice, single oral PCB 95 1.0 mg/kg, mean ± SD, read-out: Levels in brain): 19.2 ± 7.3 ng/g | concentration at 24 h ([1]; female, C57BL/6 (wild-type), mouse, liver, FWT, female wildtype mice, single oral PCB 95 1.0 mg/kg, mean ± SD, read-out: Levels in liver): 120 ± 42.1 ng/g | concentration at 24 h ([1]; female, C57BL/6 (wild-type), mouse, whole blood, FWT, female wildtype mice, single oral PCB 95 1.0 mg/kg, mean ± SD, read-out: Levels in blood): 9.1 ± 2.7 ng/g | concentration at 24 h ([1]; female, CYP2A6-humanized (KI), mouse, adipose, FKI, female CYP2A6-humanized mice, single oral PCB 95 1.0 mg/kg, mean ± SD, read-out: Levels in adipose): 824 ± 458 ng/g | concentration at 24 h ([1]; female, CYP2A6-humanized (KI), mouse, brain, FKI, female CYP2A6-humanized mice, single oral PCB 95 1.0 mg/kg, mean ± SD, read-out: Levels in brain): 19.7 ± 6.8 ng/g | concentration at 24 h ([1]; female, CYP2A6-humanized (KI), mouse, liver, FKI, female CYP2A6-humanized mice, single oral PCB 95 1.0 mg/kg, mean ± SD, read-out: Levels in liver): 114 ± 44.1 ng/g | concentration at 24 h ([1]; female, CYP2A6-humanized (KI), mouse, whole blood, FKI, female CYP2A6-humanized mice, single oral PCB 95 1.0 mg/kg, mean ± SD, read-out: Levels in blood): 12.9 ± 15.4 ng/g | concentration at 24 h ([1]; female, Cyp2abfgs-null (KO), mouse, adipose, FKO, female Cyp2abfgs-null mice, single oral PCB 95 1.0 mg/kg, mean ± SD, read-out: Levels in adipose): 859 ± 317 ng/g | concentration at 24 h ([1]; female, Cyp2abfgs-null (KO), mouse, brain, FKO, female Cyp2abfgs-null mice, single oral PCB 95 1.0 mg/kg, mean ± SD, read-out: Levels in brain): 20.6 ± 8.2 ng/g | concentration at 24 h ([1]; female, Cyp2abfgs-null (KO), mouse, liver, FKO, female Cyp2abfgs-null mice, single oral PCB 95 1.0 mg/kg, mean ± SD, read-out: Levels in liver): 109 ± 29.7 ng/g | concentration at 24 h ([1]; female, Cyp2abfgs-null (KO), mouse, whole blood, FKO, female Cyp2abfgs-null mice, single oral PCB 95 1.0 mg/kg, mean ± SD, read-out: Levels in blood): 8.6 ± 4.2 ng/g | concentration at 24 h ([1]; male, C57BL/6 (wild-type), mouse, adipose, MWT, male wildtype mice, single oral PCB 95 1.0 mg/kg, mean ± SD, read-out: Levels in adipose): 1320 ± 297 ng/g | concentration at 24 h ([1]; male, C57BL/6 (wild-type), mouse, brain, MWT, male wildtype mice, single oral PCB 95 1.0 mg/kg, mean ± SD, read-out: Levels in brain): 19.3 ± 4 ng/g | concentration at 24 h ([1]; male, C57BL/6 (wild-type), mouse, liver, MWT, male wildtype mice, single oral PCB 95 1.0 mg/kg, mean ± SD, read-out: Levels in liver): 96.3 ± 31.7 ng/g | concentration at 24 h ([1]; male, C57BL/6 (wild-type), mouse, whole blood, MWT, male wildtype mice, single oral PCB 95 1.0 mg/kg, mean ± SD, read-out: Levels in blood): 14.1 ± 2 ng/g | concentration at 24 h ([1]; male, CYP2A6-humanized (KI), mouse, adipose, MKI, male CYP2A6-humanized mice, single oral PCB 95 1.0 mg/kg, mean ± SD, read-out: Levels in adipose): 734 ± 355 ng/g | concentration at 24 h ([1]; male, CYP2A6-humanized (KI), mouse, brain, MKI, male CYP2A6-humanized mice, single oral PCB 95 1.0 mg/kg, mean ± SD, read-out: Levels in brain): 13.3 ± 5.7 ng/g | concentration at 24 h ([1]; male, CYP2A6-humanized (KI), mouse, liver, MKI, male CYP2A6-humanized mice, single oral PCB 95 1.0 mg/kg, mean ± SD, read-out: Levels in liver): 183 ± 190 ng/g | concentration at 24 h ([1]; male, CYP2A6-humanized (KI), mouse, whole blood, MKI, male CYP2A6-humanized mice, single oral PCB 95 1.0 mg/kg, mean ± SD, read-out: Levels in blood): 15.6 ± 18.3 ng/g | concentration at 24 h ([1]; male, Cyp2abfgs-null (KO), mouse, adipose, MKO, male Cyp2abfgs-null mice, single oral PCB 95 1.0 mg/kg, mean ± SD, read-out: Levels in adipose): 692 ± 93 ng/g | concentration at 24 h ([1]; male, Cyp2abfgs-null (KO), mouse, brain, MKO, male Cyp2abfgs-null mice, single oral PCB 95 1.0 mg/kg, mean ± SD, read-out: Levels in brain): 13.1 ± 6.1 ng/g | concentration at 24 h ([1]; male, Cyp2abfgs-null (KO), mouse, liver, MKO, male Cyp2abfgs-null mice, single oral PCB 95 1.0 mg/kg, mean ± SD, read-out: Levels in liver): 146 ± 42.6 ng/g | concentration at 24 h ([1]; male, Cyp2abfgs-null (KO), mouse, whole blood, MKO, male Cyp2abfgs-null mice, single oral PCB 95 1.0 mg/kg, mean ± SD, read-out: Levels in blood): 10.6 ± 7.4 ng/g | Mean PCB 95 blood level ([2]; corresponding dams, exposure via diet through gestation and lactation): 16 ng/g | PCB 95 levels in the liver ([2]; corresponding offspring on postnatal day 21): 150 ng/g wet weight | PCB 95 levels in brain ([2]; dams euthanized on postnatal day 21): 47 ng/g | PCB 95 levels in adipose tissue ([2]; dams exposed during gestation and lactation, high dose 6.0 mg/kg bw/d): 11,600 ng/g | PCB 95 levels in adipose tissue ([2]; dams exposed during gestation and lactation, low dose 0.1 mg/kg bw/d): 170 ng/g | PCB 95 levels in blood ([2]; dams exposed orally during gestation and lactation, high dose 6.0 mg/kg bw/d): 52 ng/g | PCB 95 levels in blood ([2]; dams exposed orally during gestation and lactation, low dose 0.1 mg/kg bw/d): not detected | PCB 95 levels in the liver ([2]; dams exposed throughout gestation and lactation): 120 ng/g wet weight | PCB 95 levels in the liver ([2]; dams exposed to racemic PCB 95 during gestation and lactation, high dose 6.0 mg/kg bw/d): 700 ng/g | PCB 95 levels in the liver ([2]; dams exposed to racemic PCB 95 during gestation and lactation, low dose 0.1 mg/kg bw/d): 12 ng/g | PCB 95 levels in adipose tissue ([2]; female mice, sub-chronic oral exposure, 0.1 mg/kg bw/d): 1800 ng/g | PCB 95 levels in adipose tissue ([2]; female mice, sub-chronic oral exposure, 6.0 mg/kg bw/d): 47,000 ng/g | PCB 95 levels in blood ([2]; female mice, subchronic oral exposure, 0.1 mg/kg bw/d): 90 ng/g | PCB 95 levels in blood ([2]; female mice, subchronic oral exposure, 6.0 mg/kg bw/d): 1200 ng/g | PCB 95 levels in brain ([2]; mice exposed orally to different doses throughout pregnancy, below the detection limit): < 140 ng/g | PCB 95 levels in brain ([2]; offspring of pregnant mice exposed developmentally, postnatal day 7): 50 ng/g | PCB 95 levels in brain ([2]; offspring of pregnant mice exposed developmentally, postnatal day 21): 70 ng/g | PCB 95 levels in blood ([2]; postnatal day 21 pups exposed throughout gestation and lactation via the maternal diet): 36 ng/g | PCB 95 levels in adipose tissue [3]: 9300 ng/g | PCB 95 levels in blood [3]: 9 ng/g | PCB 95 levels in the cerebellum [3]: 51 ng/g | PCB 95 levels in the cortex [3]: 29 ng/g | PCB 95 levels in the liver [3]: 120 ng/g | PCB 95 concentration in maternal serum ([4]; MARBLES cohort, detected in only one sample): 0.1 ng/g wet weight | PCB 95 in human adipose tissue ([4]; collected 2008 to 2009 during abdominal operations, Southeast China): below the limit of detection | PCB 95 in breast adipose tissue [4, 7]: below the detection limit | PCB 95 in serum [4, 7]: below the detection limit | Average PCB 95 levels in postmortem brain tissues ([4]; older donors aged 58 to 80, United States): 0.13 ng/g | PCB 95 in human liver samples ([4]; small human cohort from Belgium (N = 11)): below the limit of detection | PCB 95 in postmortem brain tissues ([4]; younger donors aged 0 days to 1 year): not detected
